Data from paper PMC11435625, “In Vitro Hepatic Clearance Evaluations of Per- and Polyfluoroalkyl Substances (PFAS) across Multiple Structural Categories” (Toxics, 2024).

Columns and labels:
[1] = IVIVE: steady-state concentration (Css), generic HTTK model; set-up: species or system human; details: for Css (mg/L) / Css (uM): Assuming 1 mg/kg/day dose rate, BW 70 kg; for CLhep: QL 1500000 uL/min; for Fub: fub=fup/(B:P), Fub set to 1 if needed; for CLint: scaled to whole liver: HPGL 110 mill cells/g, Vl 1596 g
Procedure: IVIVE was performed as previously described to calculate human steady-state concentrations (Css). Briefly, experimental plasma protein binding data presented elsewhere were transformed to fraction unbound in blood using blood-to-plasma partitioning values. Experimental Clint values generated here are used in conjunction with relevant liver scalars to scale up to estimate whole liver clearance. […] Once Css values were established, these were used with the PFAS-specific in vitro POD data to calculate the administered equivalent doses (AEDs) using reverse dosimetry. […] The fifth-percentile AC50 value was used to define the in vitro POD. All relevant inputs, scalars, and calculations are provided in Supplementary Information, as indicated in the results.

[2] = test system: pooled primary human hepatocyte suspensions; assay: Hepatic clearance assay (substrate depletion, LC-MS); details: in µL/min/10^6 cells; for CLint for HTTK: CLint value carried into HTTK/IVIVE; for in vitro CLint exp assay / Unadj Clint: pooled primary human hepatocyte suspensions; for Unadj Clint: unadjusted hepatic intrinsic clearance, Table S4
Procedure: The rate of hepatic clearance was determined as previously described for a set of PFAS [11]. Analysis was conducted across two laboratories at the Division of Translational Toxicology (DTT) at the National Institute of Environmental Health Sciences (NIEHS) and the Center for Computational Toxicology and Exposure at the USEPA. The PFAS analyzed in each lab can be found in the Supplementary Materials.
The hepatic clearance assay was performed at both the DTT and EPA laboratories as described below. The pooled human hepatocyte suspensions used in this work were purchased commercially and meet the ethical and scientific standards described in the Human Ethics Rule (40 CFR 26). The suspensions were prepared from hepatocytes obtained from de-identified donors by a commercial vendor.
PFAS stock solutions prepared in DMSO were added to prewarmed William’s E medium to make a 2X working stock solution (2 µM). […] The working stock solutions were then transferred to a 96-well polypropylene plate and placed in an incubator at 37 °C with 5% carbon dioxide prior to adding cells. Cryopreserved pooled primary human hepatocyte suspensions (50-donor pool, mixed gender; BioIVT; Westbury, NY, USA) were thawed and transferred to vials containing hepatocyte thawing medium. After centrifuging for 5–10 min at 100× g, thawing medium was removed, being careful not to disturb the cell pellet. The primary human hepatocytes were then resuspended in pre-warmed complete Williams E medium to achieve a cell density of ~1.0 × 10^6 viable cells/mL as determined by Trypan Blue exclusion. Cells were then added to the 96-well incubation plates containing PFAS to achieve a final density of ~0.5 × 10^6 viable cells/mL and a 1 μM assay concentration (Ctest), then placed in incubator on a shaker at 300 rpm. Triplicate samples were removed from the incubator at time points ranging from 0 to 240 min and quenched with a total crash in 2–3 volumes of ice-cold acetonitrile. Samples were spun at 4000× g for 20 min, and supernatants were transferred to new tubes and stored at <−70 °C until analysis. Media-only (no cell) and/or heat-inactivated hepatocytes were included as negative controls for each chemical to evaluate and estimate chemical loss due to nonmetabolic processes (e.g., hydrolysis). Phenacetin was included in all runs as an assay reference compound; EPA also included propranolol as an additional reference compound.
Assay samples were diluted in mobile phase and analyzed using a Thermo Vanquish UPLC system with a Thermo Hypersil Gold aQ C18 column (100 × 2.1 mm, 1.9 […], Thermo Fisher Scientific Inc.) coupled to a Q Exactive Plus mass spectrometer. Gradient elution was used in the chromatographic separations using water with 20 mM ammonium acetate (mobile phase A) and methanol (mobile phase B), with the following gradient program: 0.5–7 min, 30%–90% B; 7–8 min, 90% B; 8–9 min, 90%–30% B; and 9–10 min, 30% B. The first minute of each injection was diverted to waste to avoid introduction of excessive salts from incubation medium. Analysis was detected in negative ion mode. Samples were quantified against an external, matrix-matched calibration curve. Additional methodologic information is available in Table S2.
To perform SPE, a positive-pressure manifold was employed along with Oasis WAX µElution plates and Oasis HLB 30 mg plates (Waters, Milford, MA, USA) for PFAS and positive-control extraction, respectively. […] The sorbent was then washed with 1% formic acid and water. Samples were eluted in 2% ammonia in methanol for analysis. Similarly, HLB plates were conditioned with methanol and water before sample was loaded onto the sorbent. The wells were then washed with 5% methanol in water and water before elution in methanol. For samples not undergoing SPE, the supernatant of the crashed assay sample was diluted in mobile phase prior to analysis. The first 1.5 min of the run was diverted to waste to prevent salt contamination.

plasma protein = details: cited from earlier work; for Mean fu: fraction unbound in plasma, input for IVIVE calculations

Compound	Css (mg/L) [1] [mg/L]	Css (uM) [1] [µM]	CLhep [1] [L/h]	Fub [1]	CLint [1] [µL/min]	CLint for HTTK [2]	in vitro CLint exp assay [2]	Mean fu (plasma protein)	Unadj Clint [2]	Css ([1]; human steady-state concentration, 1 mg/kg/day exposure rate, loss of parent compound only) [µM]	fup (fraction unbound in plasma) (plasma protein; human plasma)
CCNS(=O)(=O)C(F)(F)C(F)(F)C(F)(F)C(F)(F)C(F)(F)C(F)(F)C(F)(F)C(F)(F)F	0.58	1.10	4.700	0.05255	1573018	8.96	8.96	0.0289			
CNS(=O)(=O)C(F)(F)C(F)(F)C(F)(F)C(F)(F)C(F)(F)C(F)(F)C(F)(F)C(F)(F)F	0.58	1.13	4.921	0.02127	4078259	23.23	23.23	0.0117			
O=S(=O)(OCC(F)(F)F)C(F)(F)C(F)(F)C(F)(F)C(F)(F)F [2,2,2-Trifluoroethyl perfluorobutanesulfonate]	65.09	170.41	0.000	0.006742	0	0	0.00	0.0039	2.84		
O=C(O)C(F)(F)C(F)(F)C(F)F [4H-perfluorobutanoic acid (4H-PFBA)]	1.41	7.18	0.000	0.3116	0	0	0	0.1714			
O=C(O)C(F)(F)C(F)(F)C(F)(F)C(F)(F)C(F)(F)C(F)(F)C(F)F [8H-Perfluorooctanoic acid (8H-PFOA)]	114.93	290.23	0.000	0.003818	0	0	0	0.0021			
N.O=C(O)C(F)(F)C(F)(F)C(F)(F)C(F)(F)C(F)(F)C(F)(F)C(F)(F)F [Ammonium perfluorooctanoate (NH4PFOA)]	81.36	196.53	0.028	0.001273	361654	2.06	2.06	0.0007			
O=C(O)C(F)(F)C(F)(F)C(F)(F)C(F)(F)F [PFPeA, Perfluoropentanoic acid]									2.13	20.78	0.0440
O=S(=O)(O)C(F)(F)C(F)(F)C(F)(F)C(F)(F)C(F)(F)C(F)(F)C(F)(F)F [Perfluoroheptanesulfonic acid (PFHpS)]	402.24	893.98	0.000	0.001091	0	0	0	0.0006			
O=C(Cl)C(F)(F)C(F)(F)C(F)(F)C(F)(F)C(F)(F)C(F)(F)F [Perfluoroheptanoyl chloride (PFHpA-Cl)]	180.82	473.43	0.000	0.002427	0	0	0	0.0017			
NS(=O)(=O)C(F)(F)C(F)(F)C(F)(F)C(F)(F)C(F)(F)C(F)(F)F [Perfluorohexanesulfonamide (PFHxSA)]	603.36	1512.33	0.000	0.0007273	0	0	0	0.0004			
O=S(=O)(O)C(F)(F)C(F)(F)C(F)(F)C(F)(F)C(F)(F)C(F)(F)F [Perfluorohexanesulfonic acid (PFHxS)]	268.16	670.49	0.000	0.001636	0	0	0	0.0009			
O=C(O)C(F)(F)C(F)(F)C(F)(F)C(F)(F)C(F)(F)C(F)(F)C(F)(F)C(F)(F)F [Perfluorononanoic acid (PFNA)]	150.84	325.11	0.000	0.002909	0	0	0	0.0016			
NS(=O)(=O)C(F)(F)C(F)(F)C(F)(F)C(F)(F)C(F)(F)C(F)(F)C(F)(F)C(F)(F)F [Perfluorooctane sulfonamide (PFOSA)]	2.16	4.33	1.313	0.007091	3131990	17.84	17.84	0.0039			
O=S(=O)(O)C(F)(F)C(F)(F)C(F)(F)C(F)(F)C(F)(F)C(F)(F)C(F)(F)C(F)(F)F [Perfluorooctane sulfonate (PFOS)]	49.25	98.52	0.000	0.008909	0	0	0	0.0049			
